Source: patent publication US10125101B2, “Indanylaminopyridylcyclopropanecarboxylic acids, pharmaceutical compositions and uses thereof” (Boehringer Ingelheim International GmbH, priority 2016, dated 2018)
Values after ≈ are worked out from the molar mass of the structure shown. Read-outs that look alike come from different tables or passages of the source.

Tests used:
[1] = Chemical stability (degradation kinetics) in acidic aqueous media; format: physicochemical; details: pH value ca. 1.2 (acetonitrile/0.1 M aqueous HCl 2:3), 37° C.
Procedure: Degradation kinetics is used to simulate chemical stability of compounds in the acidic part of the gastro intestinal tract. […] Their application as medical drugs to treat human diseases is therefore less restricted and troublesome.
The chemical stability of the compounds of the invention at pH value of ca. 1.2 is determined as follows:
Compound is dissolved in an HPLC vial either in a mixture of acetonitrile/0.1 M aqueous HCl (2:3; pH ca. 1.2) or in a mixture of acetonitrile/McIlvaine buffer pH 7.4 (2:3) to get a concentration of approximately 0.25 mg/ml. The vial was then transferred into an HPLC autosampler system and maintained at a temperature of 37° C. A first sample is taken and injected immediately into a standard HPLC system with a UV DAD detector. Further samples are injected after 2, 4, 6, 8 and 10 hours. Amount of degraded compound is measured by determining the recovery rate of compound [%] for each injection using an HPLC standard gradient method. Therefore the peak area of the main peak for the first injection (AUt0) is determined and set as 100%. Peak area of the main peak is determined also for the further injections (AUtn, n=2, 4, 6, 8, 10) and expressed as fraction of (AUt0)/(AUtn, n=2, 4, 6, 8, 10) [%].

[2] = molecular target: human GPR40 receptor (Homo sapiens (Human), UniProt O14842); assay: IP1 accumulation measurements using the IPOne assay system; format: cell-based
Procedure: IP1 accumulation measurements using the IPOne assay system—1321N1 cells stably expressing human GPR40 receptor (Euroscreen, Belgium) are seeded 24 h before the assay in white 384-well plates in culture medium containing 10% FCS, 1% Na-Pyruvate and 400 μg/mL G418. IP1 is assayed according to the manufacturer's description (Cisbio Bioassays, France). In brief, the assay is started by substitution of the culture medium by stimulation buffer (Hepes 10 mM, CaCl2 1 mM, MgCl2 0.5 mM, KCl 4.2 mM, NaCl 146 mM, glucose 5.5 mM and LiCl 50 mM, pH 7.4). Cells are stimulated for 1 h at 37° C., 5% CO2 by addition of the compounds that are diluted in stimulation buffer containing LiCl. Assays are stopped by adding HTRF-conjugates (IP1-d2 and Anti-IP1 cryptate Tb) and lysis buffer, provided by the manufacturer. After an incubation time of 1 h at room temperature plates are measured using an EnVision™, Perkin Elmer. The obtained fluorescence ratios at 665/615 […] are then used to calculate the pEC50 values using Assay Explorer 3.3 Software (Accelrys, Inc.) by interpolation using an IP1 reference curve and subsequent sigmoidal curve fitting allowing for a variable hill slope.

[3] = Aqueous solubility; format: physicochemical; details: buffer pH 2.2, 24 h shaking, 2.5% DMSO; for solubility at 24 h: aqueous buffer, kinetic from dmso stock
Procedure: Starting from a 10 mM DMSO stock solution aliquots are diluted with acetonitrile/water (1/1) or buffer, respectively. After 24 h of shaking, the solutions are filtrated and analyzed by LC-UV. The amount dissolved in buffer is compared to the amount in the acetonitrile solution.

[4] = molecular target: cytochrome P450 2C8-isoenzyme (Homo sapiens (Human), UniProt P10632); assay: Inhibition of CYP-2C8 (amodiaquine deethylation, human liver microsomes); format: in vitro ADME; details: amodiaquine 1 μM, 37° C.
Procedure: (§1) All assays are carried out on a robotic system in 96 well plates. The final incubation volume contains TRIS buffer (0.1 M), MgCl2 (5 mM), human liver microsomes (0.05 mg/mL), amodiaquine (1 μM) and the test compound at five different concentrations or no compound (high control) in duplicate (e.g. highest concentration 10-50 μM with subsequent serial 1:4 dilutions). Following a short preincubation period, reactions are started with the cofactor (NADPH, 1 mM) and stopped by cooling the incubation down to 8° C. and subsequently by addition of one volume of acetonitrile. An internal standard solution—the stable isotope d5-desethylamodiaquine—is added after quenching of incubations. Peak area analyte (=metabolite formed) and internal standard is determined by LC-MS/MS. The resulting peak area ratio analyte to internal standard in these incubations is compared to a control activity containing no test compound. Within each of the assay runs, the IC50 of a positive control inhibitor (Montelukast) is determined.

[5] = molecular target: cytochrome P450 2C9-isoenzyme (Homo sapiens (Human), UniProt P11712); assay: Inhibition of CYP-2C9 (diclofenac hydroxylation, human liver microsomes); format: in vitro ADME; details: diclofenac 10 μM, 37° C.
Procedure: as §1, with “(0.1” for “(0.05”, “diclofenac (10” for “amodiaquine (1”, “(e.g.,” for “(e.g.”, “^13C6-hydroxydiclofenac—is” for “d5-desethylamodiaquine—is”, “(sulfaphenazole)” for “(Montelukast)”

[6] = head-to-head compilation, given as IC50, values equal the EC50 of Table 2, read-out: GPR40: IC50
[7] = 1321N1 cells stably expressing human GPR40, 1 h stimulation, read-out: EC50

Sequence of cytochrome P450 2C8-isoenzyme (P10632 whole entry): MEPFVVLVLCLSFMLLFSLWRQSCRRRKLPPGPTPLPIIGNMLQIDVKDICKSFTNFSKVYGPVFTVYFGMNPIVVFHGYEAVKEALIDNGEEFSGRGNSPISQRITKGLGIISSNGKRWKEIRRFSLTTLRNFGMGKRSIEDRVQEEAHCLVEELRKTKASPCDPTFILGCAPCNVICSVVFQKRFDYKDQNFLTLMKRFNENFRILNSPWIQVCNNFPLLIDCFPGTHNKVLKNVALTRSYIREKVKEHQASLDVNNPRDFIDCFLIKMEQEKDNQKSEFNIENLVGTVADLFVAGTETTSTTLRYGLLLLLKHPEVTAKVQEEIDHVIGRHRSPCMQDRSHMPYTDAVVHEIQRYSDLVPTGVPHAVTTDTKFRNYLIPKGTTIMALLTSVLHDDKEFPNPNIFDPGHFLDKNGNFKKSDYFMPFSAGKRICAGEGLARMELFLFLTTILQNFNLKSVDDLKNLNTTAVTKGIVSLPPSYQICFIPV
Sequence of cytochrome P450 2C9-isoenzyme (P11712 whole entry): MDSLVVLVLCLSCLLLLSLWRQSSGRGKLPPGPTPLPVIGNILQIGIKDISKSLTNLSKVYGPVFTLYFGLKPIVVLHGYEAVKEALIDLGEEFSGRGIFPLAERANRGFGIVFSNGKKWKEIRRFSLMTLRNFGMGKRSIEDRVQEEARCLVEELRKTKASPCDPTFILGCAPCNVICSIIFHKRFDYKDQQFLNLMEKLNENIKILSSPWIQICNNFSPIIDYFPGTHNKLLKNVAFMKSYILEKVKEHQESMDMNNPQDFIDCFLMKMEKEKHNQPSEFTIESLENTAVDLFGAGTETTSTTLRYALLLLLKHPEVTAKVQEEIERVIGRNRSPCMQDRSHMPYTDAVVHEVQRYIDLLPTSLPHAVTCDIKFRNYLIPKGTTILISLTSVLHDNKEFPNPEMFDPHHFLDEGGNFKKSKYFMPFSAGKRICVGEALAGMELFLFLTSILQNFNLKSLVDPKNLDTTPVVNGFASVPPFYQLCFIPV
Sequence of human GPR40 receptor (O14842 whole entry): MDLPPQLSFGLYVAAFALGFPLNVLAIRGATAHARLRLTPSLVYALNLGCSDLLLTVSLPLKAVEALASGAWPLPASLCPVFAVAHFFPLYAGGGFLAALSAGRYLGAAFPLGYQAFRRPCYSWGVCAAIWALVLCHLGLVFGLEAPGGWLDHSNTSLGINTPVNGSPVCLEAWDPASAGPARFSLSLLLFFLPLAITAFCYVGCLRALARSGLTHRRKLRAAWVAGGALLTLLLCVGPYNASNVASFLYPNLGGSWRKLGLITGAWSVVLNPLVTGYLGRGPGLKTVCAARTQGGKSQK

Amount of degradation after 2 h [1] | EC50 [2, 6] | solubility at 24 h [3] | Solubility at pH value 2.2 [3] | IC50 [4] | IC50 [5] | EC50 [2, 7] | SMILES
8% | – | – | – | – | – | – | Cc1cc(-c2nnn(C)n2)cc(C)c1-c1ccc(F)c2c1CC[C@H]2Oc1ccc([C@H]2C[C@@H]2C(=O)O)cc1 [Example 33 in WO 2013/178575]
8% | 0.004 µM | < 1 µg/mL | < 1 μg/mL | 6 µM | 14 µM | – | Cc1cc(OCCC(C)(C)O)cc(C)c1-c1ccc(F)c2c1CC[C@H]2Oc1ccc([C@H]2C[C@@H]2C(=O)O)cc1 [Example 17 in WO 2013/178575, reference compound]
3% | – | – | – | – | – | – | Cc1cc(-c2nnn(C)n2)cc(C)c1-c1ccc(F)c2c1CC[C@H]2Oc1ccc([C@H]2C[C@@H]2C(=O)O)cc1 [Example 15 in WO 2013/178575]
– | – | – | 123 μg/mL | 26 µM | > 50 µM | 0.007 µM | Cc1cc(OCC2CCOC2)cc(C)c1-c1ccc(F)c2c1CC[C@H]2Nc1ccc([C@H]2C[C@@H]2C(=O)O)nc1 (stereo partly shown) [Example 32]
– | – | – | 111 μg/mL | 45 µM | > 50 µM | 0.01 µM | Cc1cc(OCC(C)(C)O)cc(C)c1-c1ccc(F)c2c1CC[C@H]2Nc1ccc([C@H]2C[C@@H]2C(=O)O)nc1 [Example 34]
– | – | – | 91 μg/mL | 10 µM | 22 µM | 0.015 µM | CC(C)c1ccccc1-c1ccc(F)c2c1CC[C@H]2Nc1ccc([C@H]2C[C@@H]2C(=O)O)nc1 [Example 36]
– | – | < 1 µg/mL | – | 20 µM | > 50 µM | 0.024 µM | COc1cnc(-c2ccc(-c3cccc4c3CC[C@H]4Nc3ccc([C@H]4C[C@@H]4C(=O)O)nc3)cc2)cn1 [Example 9, (1S,2S)-2-(5-{(R)-4-[4-(5-Methoxy-pyrazin-2-yl)-phenyl]-indan-1-ylamino}-pyridin-2-yl)-cyclopropanecarboxylic acid]
– | – | – | 120 μg/mL | 32 µM | > 50 µM | 0.008 µM | Cc1cc(OCC2(C)COC2)cc(C)c1-c1ccc(F)c2c1CC[C@H]2Nc1ccc([C@H]2C[C@@H]2C(=O)O)nc1 [Example 15]
– | – | – | 90 μg/mL | 14 µM | 16 µM | 0.006 µM | Cc1cc(OCC2CCOCC2)cc(C)c1-c1ccc(F)c2c1CC[C@H]2Nc1ccc([C@H]2C[C@@H]2C(=O)O)nc1 [Example 26]
<0.5% | – | 121 µg/mL (≈ 233 µM) | – | > 50 µM | > 50 µM | 0.035 µM | Cc1cc(O[C@@H]2COC[C@H]2O)cc(C)c1-c1ccc(F)c2c1CC[C@H]2Nc1ccc([C@H]2C[C@@H]2C(=O)O)nc1 [Example 5, (1S,2S)-2-(5-{(R)-7-Fluoro-4-[4-((3R,4R)-4-hydroxy-tetrahydro-furan-3-yloxy)-2,6-dimethyl-phenyl]-indan-1-ylamino}-pyridin-2-yl)-cyclopropanecarboxylic acid]
– | – | – | >130 μg/mL | 21 µM | > 50 µM | 0.005 µM | Cc1cc(-c2ccn(C)c(=O)n2)cc(C)c1-c1ccc(F)c2c1CC[C@H]2Nc1ccc([C@H]2C[C@@H]2C(=O)O)nc1 [Example 18]
– | – | – | 97 μg/mL | 43 µM | > 50 µM | 0.668 µM | Cc1cc(C(=O)O)cc(C)c1-c1ccc(F)c2c1CC[C@H]2Nc1ccc([C@H]2C[C@@H]2C(=O)O)nc1 [Example 23]
– | – | – | 105 μg/mL | 30 µM | > 50 µM | 0.01 µM | Cc1cc(O[C@@H]2CCOC2)cc(C)c1-c1ccc(F)c2c1CC[C@H]2Nc1ccc([C@H]2C[C@@H]2C(=O)O)nc1 [Example 12]
– | – | – | 87 μg/mL | 15 µM | 31 µM | 0.027 µM | O=C(O)[C@H]1C[C@@H]1c1ccc(N[C@@H]2CCc3c(-c4ccccc4C(F)(F)F)ccc(F)c32)cn1 [Example 31]
2.5%^ | – | – | – | – | – | – | Cc1cc(-c2nnn(C)n2)cc(C)c1-c1ccc(F)c2c1CC[C@H]2Oc1ccc([C@H]2C[C@@H]2C(=O)O)cc1 [Example 54 in WO 2013/178575]
– | – | 62 µg/mL (≈ 148 µM) | – | > 50 µM | > 50 µM | 0.1 µM | COc1ccc(-c2cccc3c2CC[C@H]3Nc2ccc([C@H]3C[C@@H]3C(=O)O)nc2)cc1F [Example 8, (1S,2S)-2-{5-[(R)-4-(3-Fluoro-4-methoxy-phenyl)-indan-1-ylamino]-pyridin-2-yl}-cyclopropanecarboxylic acid]
– | 0.007 µM | 97 µg/mL (≈ 176 µM) | – | > 50 µM | > 50 µM | 0.007 µM | Cc1cc(OCCCS(C)(=O)=O)cc(C)c1-c1ccc(F)c2c1CC[C@H]2Nc1ccc([C@H]2C[C@@H]2C(=O)O)nc1 [Example 4, (1S,2S)-2-(5-{(R)-7-Fluoro-4-[4-(3-methanesulfonyl-propoxy)-2,6-dimethyl-phenyl]-indan-1-ylamino}-pyridin-2-yl)-cyclopropanecarboxylic acid]

SMILES | Amount of degradation after 2 h [1] | EC50 [2, 6] | solubility at 24 h [3] | Solubility at pH value 2.2 [3] | IC50 [4] | IC50 [5] | EC50 [2, 7]
Cc1cc(OCC(C)(C)C#N)cc(C)c1-c1ccc(F)c2c1CC[C@H]2Nc1ccc([C@H]2C[C@@H]2C(=O)O)nc1 [Example 17] | – | – | – | 64 μg/mL | 19 µM | 36 µM | 0.01 µM
O=C(O)[C@H]1C[C@@H]1c1ccc(N[C@@H]2CCc3c(-c4c(Cl)cccc4Cl)ccc(F)c32)cn1 [Example 24] | – | – | – | >122 μg/mL | 11 µM | 22 µM | 0.004 µM
Cc1cc(OCCC(C)(C)O)cc(C)c1-c1ccc(F)c2c1CC[C@H]2Nc1ccc([C@H]2C[C@@H]2C(=O)O)nc1 [Example 2, (1S,2S)-2-(5-{(R)-7-Fluoro-4-[4-(3-hydroxy-3-methyl-butoxy)-2,6-dimethyl-phenyl]-indan-1-ylamino}-pyridin-2-yl)-cyclopropanecarboxylic acid] | – | 0.004 µM | 100 µg/mL (≈ 193 µM) | – | 20 µM | > 50 µM | 0.004 µM
